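Five concentrations, 48 hours, 96-well plates. TGI: total growth inhibition.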
Assays:
Experiment in all cases: DTP human tumour cell line panel, 48 h
[1] = tested on: HS 578T breast
[2] = tested on: M14 melanoma
[3] = tested on: MDA-MB-435
[4] = tested on: MDA-N
[5] = tested on: RPMI-8226 leukemia
[6] = tested on: RXF 393 renal
[7] = tested on: U251 CNS
[8] = tested on: UACC-62 melanoma
[9] = tested on: UO-31 renal
[10] = tested on: NCI-H522 lung

SMILES	TGI [1] [µM]	TGI [2] [µM]	TGI [3] [µM]	TGI [4] [µM]	TGI [5] [µM]	TGI [6] [µM]	TGI [7] [µM]	TGI [8] [µM]	TGI [9] [µM]	TGI [10] [µM]
CN(C)CC(O)CNC(=O)Nc1ccccc1 (stereo not drawn)	> 100	> 100	> 100	> 100	> 100	> 100	> 100	> 100	> 100	–
COC(=O)C1=C(C(=O)OC)SC2(S1)C(C(=O)OC)=C(C(=O)OC)Sc1c2ssc1=O	13.4	3.88	4.36	3.57	5.68	2.7	4.68	1.37	3.15	0.581
CC(=O)OC1CC[C@@]2(C)C(=CC[C@@H]3[C@@H]2CC[C@]2(C)Nc4c(cnn4-c4ccc(F)cc4)C[C@@H]32)C1 (stereo partly drawn)	> 100	> 100	> 100	> 100	28.3	11	47.3	> 71.1	> 100	> 100
COc1cccc2c1CCc1sc(CN3CCN(C)CC3)nc1-2	> 100	> 100	> 100	> 100	> 100	> 100	> 100	65.7	> 100	> 100
COc1cc(/C=[N+](\[O-])c2ccccc2Cl)ccc1OC(=S)S	> 100	> 100	57.7	> 100	> 100	89.3	> 100	99.7	> 100	> 100
CC(=O)[C@H]1CC[C@@H]2[C@]1(C)CC=C1[C@]23C=C[C@]2(C[C@@H](O)CC[C@]12C)C(C(=O)O)C3C(=O)O (stereo partly drawn)	> 100	> 100	> 100	> 100	> 100	–	> 100	> 100	> 100	> 100
O=C(NNC(=O)c1ccccc1O)c1cccs1	> 100	> 100	> 100	> 100	> 100	> 100	> 100	> 100	> 100	64
O=S1(=O)OCCOS(=O)(=O)C1C1c2ccccc2-c2ccccc21	> 100	> 100	> 100	> 100	> 100	> 100	57.9	> 100	93.2	64.5
CC(NC(=O)C(NC(=O)C(NC(=O)C(F)(F)F)C(C)C)C(C)C)C(=O)Oc1c(Cl)c(Cl)c(Cl)c(Cl)c1Cl (stereo not drawn)	> 100	> 100	> 100	> 100	> 100	> 100	> 100	> 100	> 100	> 100
Cc1[nH]c(-c2ccccc2)c(O)c1C(=O)OC1CC(C)CCC1C(C)C (stereo not drawn)	39	29	28	29.9	54.9	24.3	28.9	30.9	26	26.6
